In ChEMBL document CHEMBL5233285, “Recent Update on the Development of PCSK9 Inhibitors for Hypercholesterolemia Treatment” (J Med Chem, 2022):
Blank lines part the entries; values can stand above or below the molecule they belong to. Numbered stars: 1 amine (or outer) side, 2 acyl side, 3 side chain; on linkers, the order of the positions; unused ones are H or OH. Square brackets hold non-standard residues; d marks the D form. Peptide text beside a SMILES is read from it. X1 = O=C(C1(N[*:1])CCC(c2ccccc2)CC1)[*:2]; hArg = N=C(N)NCCCC[C@H](N)C(=O)O

Legend:
Homo sapiens [1] = experiment: Hypocholesterolemic activity in human assessed as reduction in LDL-C level at 300 mg, QD administered for 28 days; format: functional; design: scale not given: the % may be the effect or the level left; conditions: time 28 day
Homo sapiens [2] = experiment: Hypocholesterolemic activity in human assessed as reduction in ApoB level at 300 mg, QD administered for 28 days; format: functional; design: scale not given: the % may be the effect or the level left; conditions: time 28 day
Homo sapiens [3] = experiment: Hypocholesterolemic activity in human assessed as reduction in TC level at 300 mg, QD administered for 28 days; format: functional; design: scale not given: the % may be the effect or the level left; conditions: time 28 day
[4] = target: T1, Proprotein convertase subtilisin/kexin type 9 (Homo sapiens, UniProt Q8NBP7); experiment: Binding affinity to PCSK9 (unknown origin)
[5] = target: T2, 3-hydroxy-3-methylglutaryl-coenzyme A reductase (Homo sapiens, UniProt P04035); experiment: Inhibition of HMG CoA reductase (unknown origin)
T2 sequence (P04035 whole entry): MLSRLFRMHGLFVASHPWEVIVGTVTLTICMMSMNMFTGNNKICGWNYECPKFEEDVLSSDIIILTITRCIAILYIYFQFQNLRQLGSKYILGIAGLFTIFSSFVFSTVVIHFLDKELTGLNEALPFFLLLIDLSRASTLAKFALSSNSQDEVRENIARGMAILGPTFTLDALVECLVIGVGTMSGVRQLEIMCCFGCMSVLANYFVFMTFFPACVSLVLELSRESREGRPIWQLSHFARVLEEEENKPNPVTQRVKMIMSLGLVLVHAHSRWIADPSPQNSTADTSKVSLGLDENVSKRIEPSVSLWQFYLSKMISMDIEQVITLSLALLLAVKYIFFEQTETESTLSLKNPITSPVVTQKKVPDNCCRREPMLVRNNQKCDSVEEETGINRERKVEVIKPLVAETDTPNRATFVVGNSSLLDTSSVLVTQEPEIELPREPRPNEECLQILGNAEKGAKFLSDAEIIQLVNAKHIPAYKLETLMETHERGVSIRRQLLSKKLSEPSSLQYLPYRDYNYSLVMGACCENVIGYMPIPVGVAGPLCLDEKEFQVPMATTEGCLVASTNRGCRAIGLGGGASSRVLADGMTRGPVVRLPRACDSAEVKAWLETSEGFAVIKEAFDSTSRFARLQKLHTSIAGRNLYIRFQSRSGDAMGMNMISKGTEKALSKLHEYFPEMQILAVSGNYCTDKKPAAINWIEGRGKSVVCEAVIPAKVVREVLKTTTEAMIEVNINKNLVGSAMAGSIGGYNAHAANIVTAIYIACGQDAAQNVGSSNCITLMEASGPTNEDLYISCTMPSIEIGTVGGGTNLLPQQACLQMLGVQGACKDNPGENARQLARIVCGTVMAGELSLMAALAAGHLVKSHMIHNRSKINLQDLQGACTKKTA

PCSK9/LDLR [6] = target: T3, PCSK9/LDLR (Homo sapiens, UniProt Q8NBP7); experiment: Inhibition of PCSK9-LDLR (unknown origin) protein-protein interaction; format: protein assay
[7] = target: T1, Proprotein convertase subtilisin/kexin type 9; experiment: Inhibition of human PCSK9 preincubated for 30 mins followed by EGF(A) addition and measured after 2 hrs by TR-FRET assay
[8] = target: T1, Proprotein convertase subtilisin/kexin type 9; experiment: Binding affinity to human PCSK9
[9] = target: T1, Proprotein convertase subtilisin/kexin type 9; experiment: Inhibition of PCSK9 mediated LDLR degradation in human HepG2 cells assessed as restoration of LDLR; format: cell-based
[10] = target: T1, Proprotein convertase subtilisin/kexin type 9; experiment: Inhibition of human PCSK9
[11] = target: Proprotein convertase subtilisin/kexin type 9 (Mus musculus, UniProt Q80W65); experiment: Binding affinity to mouse PCSK9
PCSK9/LDLR [12] = target: T3, PCSK9/LDLR; experiment: Inhibition of PCSK9-LDLR protein-protein interaction in human HepG2 cells assessed as increase in LDL uptake; format: cell-based
[13] = target: T1, Proprotein convertase subtilisin/kexin type 9; experiment: Inhibition of PCSK9 in human HepG2 cells assessed as restoration of LDLR at 1 uM relative to control; format: cell-based
[14] = target: T1, Proprotein convertase subtilisin/kexin type 9; experiment: Inhibition of PCSK9 in human HepG2 cells assessed as increase in LDL uptake at 1 uM relative to control; format: cell-based
[15] = target: T1, Proprotein convertase subtilisin/kexin type 9; experiment: Inhibition of human PCSK9 preincubated for 30 mins followed by ab20 addition and measured after 2 hrs by TR-FRET assay
[16] = target: T1, Proprotein convertase subtilisin/kexin type 9; experiment: Inhibition of human PCSK9 preincubated for 30 mins followed by LDLR addition and measured after 2 hrs by TR-FRET assay
Homo sapiens [17] = species: Homo sapiens; experiment: Hypocholesterolemic activity in human assessed as reduction in LDL-C level at 10 to 20 mg; format: functional; design: scale not given: the % may be the effect or the level left; conditions: dose 10-20 mg

T3 sequence (Q8NBP7 31-152 limits assumed): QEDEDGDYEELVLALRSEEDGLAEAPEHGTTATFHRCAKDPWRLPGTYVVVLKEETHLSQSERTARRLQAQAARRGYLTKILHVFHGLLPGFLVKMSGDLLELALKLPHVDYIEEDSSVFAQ
T3 sequence (Q8NBP7 153-692 limits assumed): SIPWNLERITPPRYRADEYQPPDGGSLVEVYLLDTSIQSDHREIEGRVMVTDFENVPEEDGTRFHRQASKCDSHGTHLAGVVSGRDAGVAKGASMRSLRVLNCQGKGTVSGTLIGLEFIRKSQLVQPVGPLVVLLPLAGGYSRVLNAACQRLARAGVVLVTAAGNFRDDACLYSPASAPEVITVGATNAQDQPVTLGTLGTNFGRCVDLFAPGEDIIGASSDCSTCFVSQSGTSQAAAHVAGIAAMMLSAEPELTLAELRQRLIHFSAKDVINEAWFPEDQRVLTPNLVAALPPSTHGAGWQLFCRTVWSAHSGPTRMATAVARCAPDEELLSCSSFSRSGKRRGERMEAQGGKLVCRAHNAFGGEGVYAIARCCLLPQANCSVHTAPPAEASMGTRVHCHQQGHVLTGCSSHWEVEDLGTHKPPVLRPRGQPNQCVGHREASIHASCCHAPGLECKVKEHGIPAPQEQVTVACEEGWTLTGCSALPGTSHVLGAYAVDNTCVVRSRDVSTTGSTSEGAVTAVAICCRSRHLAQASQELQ
T3 sequence (P01130 22-860 partner limits assumed): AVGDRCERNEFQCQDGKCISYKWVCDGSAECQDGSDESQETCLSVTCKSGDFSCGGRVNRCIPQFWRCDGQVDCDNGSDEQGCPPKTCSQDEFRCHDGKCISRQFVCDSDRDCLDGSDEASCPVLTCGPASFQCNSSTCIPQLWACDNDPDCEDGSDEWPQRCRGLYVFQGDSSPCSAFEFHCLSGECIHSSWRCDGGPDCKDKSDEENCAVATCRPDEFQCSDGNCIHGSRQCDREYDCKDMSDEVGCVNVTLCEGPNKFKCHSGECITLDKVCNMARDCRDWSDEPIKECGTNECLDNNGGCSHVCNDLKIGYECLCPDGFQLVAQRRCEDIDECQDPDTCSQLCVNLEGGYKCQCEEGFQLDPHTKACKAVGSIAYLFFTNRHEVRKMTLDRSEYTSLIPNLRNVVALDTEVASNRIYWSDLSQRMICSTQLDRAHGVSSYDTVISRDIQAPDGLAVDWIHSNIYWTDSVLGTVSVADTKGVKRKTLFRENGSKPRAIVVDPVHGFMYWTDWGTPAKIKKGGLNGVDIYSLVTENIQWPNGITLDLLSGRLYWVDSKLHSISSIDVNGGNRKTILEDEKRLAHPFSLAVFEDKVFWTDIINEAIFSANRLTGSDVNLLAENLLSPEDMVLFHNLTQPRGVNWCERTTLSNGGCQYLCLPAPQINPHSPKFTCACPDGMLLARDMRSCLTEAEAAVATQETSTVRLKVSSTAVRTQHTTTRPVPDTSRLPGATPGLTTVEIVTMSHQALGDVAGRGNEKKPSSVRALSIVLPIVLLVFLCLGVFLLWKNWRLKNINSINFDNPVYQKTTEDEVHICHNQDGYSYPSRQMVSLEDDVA
T1 sequence (Q8NBP7 31-152 limits assumed): as the sequence (Q8NBP7 31-152 limits assumed) above
T1 sequence (Q8NBP7 153-692 limits assumed): as the sequence (Q8NBP7 153-692 limits assumed) above
Proprotein convertase subtilisin/kexin type 9 (Mus musculus, UniProt Q80W65), sequence (Q80W65 35-155 limits assumed): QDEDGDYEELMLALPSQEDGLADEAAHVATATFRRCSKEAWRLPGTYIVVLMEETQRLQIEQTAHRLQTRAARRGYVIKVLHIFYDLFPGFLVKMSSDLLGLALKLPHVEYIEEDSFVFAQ
Proprotein convertase subtilisin/kexin type 9 (Mus musculus, UniProt Q80W65), sequence (Q80W65 156-694 limits assumed): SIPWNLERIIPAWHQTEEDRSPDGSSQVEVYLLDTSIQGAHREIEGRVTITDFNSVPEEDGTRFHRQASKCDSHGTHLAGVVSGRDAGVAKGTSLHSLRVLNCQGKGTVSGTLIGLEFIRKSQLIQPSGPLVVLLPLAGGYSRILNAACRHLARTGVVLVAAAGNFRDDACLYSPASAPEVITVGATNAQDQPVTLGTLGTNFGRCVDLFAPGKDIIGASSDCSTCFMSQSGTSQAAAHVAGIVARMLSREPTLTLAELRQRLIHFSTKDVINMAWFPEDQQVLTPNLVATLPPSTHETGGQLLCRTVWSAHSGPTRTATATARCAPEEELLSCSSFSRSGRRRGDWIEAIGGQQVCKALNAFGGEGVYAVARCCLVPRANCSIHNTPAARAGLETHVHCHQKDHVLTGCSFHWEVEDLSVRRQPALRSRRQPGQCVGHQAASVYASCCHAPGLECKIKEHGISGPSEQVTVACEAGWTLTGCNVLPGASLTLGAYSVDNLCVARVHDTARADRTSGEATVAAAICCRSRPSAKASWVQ

Structure (SMILES): COc1ccc2c(c1)CCN1Cc3c(ccc(OC)c3OS(=O)(=O)c3cccc(F)c3)C[C@H]21.Cl
- Activity (Homo sapiens [1]): 26.3%
- Activity (Homo sapiens [2]): 17.4%
- Activity (Homo sapiens [3]): 20.1%

- Kd [4]: 24800 nM
Structure (SMILES): CC(C)C[C@H](C(=O)N1CCN([C@@H](CC(N)=O)C(=O)N[C@@H](CCCNC(=N)N)C(=O)C[C@H]2CCOC2=O)CC1)N1C(=O)N[C@@H](CC(=O)O)C1=O

- IC50 [5]: 147000 nM
- IC50 (PCSK9/LDLR [6]): 1600 nM
Structure (SMILES): CC[C@H](C)[C@H](NC(=O)[C@@H](N)CC(C)C)C(=O)N[C@@H](CC(C)C)C(=O)N1CCC[C@H]1C(=O)N[C@@H](CCCCN)C(=O)N[C@@H](Cc1c[nH]cn1)C(=O)N[C@@H](CO)C(=O)N[C@@H](C)C(=O)N[C@@H](CC(=O)O)C(=O)O (H-LILPKHSAD-OH)

- IC50 [7]: > 50000 nM
- Kd [8]: 5.5 nM
- EC50 [9]: 250 nM
- IC50 [10]: 20 nM
Structure (SMILES): CC[C@H](C)[C@H](NC(=O)[C@H](CCC(N)=O)NC(=O)[C@H](CC(C)C)NC(=O)[C@H](CC(N)=O)NC(=O)[C@H](Cc1c[nH]c2ccccc12)NC(=O)[C@@H]1CCCN1C(=O)[C@H](CC(C)C)NC(=O)[C@H](CCCNC(=N)N)NC(=O)[C@H](CS)NC(=O)CNC(=O)[C@H](CO)NC(=O)CNC(=O)[C@@H](NC(=O)[C@H](Cc1c[nH]c2ccccc12)NC(=O)[C@H](CC(=O)O)NC(=O)[C@H](CC(C)C)NC(=O)[C@H](Cc1ccc(O)cc1)NC(=O)[C@H](CCC(=O)O)NC(=O)[C@H](CCC(=O)O)NC(=O)[C@H](Cc1c[nH]c2ccccc12)NC(=O)[C@H](CO)NC(=O)[C@@H](NC(=O)[C@H](Cc1ccccc1)NC(=O)[C@@H](NC(=O)[C@@H](N)[C@@H](C)O)C(C)C)[C@@H](C)O)C(C)C)C(=O)NCC(=O)N[C@@H](CC(C)C)C(=O)N1CCC[C@H]1C(=O)N[C@@H](CS)C(=O)O (H-TVFTSWEEYLDWVGSGCRLPWNLQIGLPC-OH)

- Kd [11]: 1 nM
- Kd [8]: 0.3 nM
- EC50 (PCSK9/LDLR [12]): 106 nM
Structure (SMILES): CC(C)[C@@H]1NC(=O)[C@H](Cc2ccccc2)NC(=O)CSC[C@@H](C(=O)NCC(N)=O)NC(=O)[C@@H]2CCCN2C(=O)[C@H](CCCNC(=N)N)NC(=O)[C@H](CC(=O)O)NC(=O)[C@H](C)N(C)C(=O)[C@H](Cc2ccc(-c3ccccc3)cc2)NC(=O)[C@H](C)N(C)C(=O)[C@H](Cc2ccc(-c3ccccc3)cc2)NC(=O)[C@H]([C@@H](C)O)NC(=O)[C@H]([C@@H](C)O)NC(=O)[C@H](CO)NC1=O

- IC50 [7]: > 50000 nM
Structure (SMILES): CC[C@H](C)[C@H](NC(=O)[C@H](CCCCNC(=N)N)NC(=O)[C@@H](NC(=O)[C@H](CC(C)C)NC(=O)[C@H](CC(N)=O)NC(=O)[C@H](Cc1c[nH]c2ccccc12)NC(=O)[C@@H]1CCCN1C(=O)[C@H](CCSC)NC(=O)[C@H](CC(C)C)NC(=O)[C@@H](N)CC(=O)O)C(C)C)C(=O)NCC(=O)N[C@@H](CC(C)C)C(=O)N[C@@H](CC(C)C)C(=O)N[C@@H](CCCNC(=N)N)C(=O)O (H-DLMPWNLV[hArg]IGLLR-OH)

- IC50 [5]: 175000 nM
- IC50 (PCSK9/LDLR [6]): 1700 nM
Structure (SMILES): CC(C)C[C@H](N)C(=O)N1CCC[C@H]1C(=O)N[C@@H](CCCCN)C(=O)N[C@@H](Cc1c[nH]cn1)C(=O)N[C@@H](CO)C(=O)N[C@@H](C)C(=O)N[C@@H](CC(=O)O)C(=O)O (H-LPKHSAD-OH)

- inhibition [13]: 75.3%
- IC50 (PCSK9/LDLR [6]): 14500 nM
- inhibition [14]: 88%
Structure (SMILES): CC(=O)N[C@H](C(=O)N[C@H](C(=O)N[C@@H](Cc1ccccc1)C(=O)N[C@@H](CCCNC(=N)N)C(=O)N[C@@H](CO)C(=O)N[C@@H](Cc1c[nH]c2ccccc12)C(=O)N[C@@H](CCC(=O)O)C(=O)N[C@@H](CCC(=O)O)C(=O)N[C@@H](Cc1ccc(O)cc1)C(=O)N[C@@H](CC(C)C)C(=O)N[C@@H](CC(=O)O)C(=O)N[C@@H](Cc1ccc(O)cc1)C(=O)N[C@H](C(N)=O)C(C)C)C(C)C)[C@@H](C)O (Ac-TVFRSWEEYLDYV-NH2)

- IC50 [7]: > 50000 nM
Structure (SMILES): CC[C@H](C)[C@H](NC(=O)[C@H](CCCCNC(=N)N)NC(=O)[C@@H](NC(=O)[C@H](CC(C)C)NC(=O)[C@H](CC(N)=O)NC(=O)[C@@H](N)Cc1c[nH]c2ccccc12)C(C)C)C(=O)NCC(=O)N[C@@H](CC(C)C)C(=O)N[C@@H](CC(C)C)C(=O)N[C@@H](CCCNC(=N)N)C(=O)O (H-WNLV[hArg]IGLLR-OH)

- inhibition [13]: 89.9%
- IC50 (PCSK9/LDLR [6]): 27100 nM
- inhibition [14]: 99%
Structure (SMILES): CC(=O)N[C@H](C(=O)N[C@H](C(=O)N[C@@H](Cc1ccccc1)C(=O)N[C@H](C(=O)N[C@@H](CO)C(=O)N[C@@H](Cc1c[nH]c2ccccc12)C(=O)N[C@@H](CCC(=O)O)C(=O)N[C@@H](CCC(=O)O)C(=O)N[C@@H](C)C(=O)N[C@@H](CC(C)C)C(=O)N[C@@H](CC(=O)O)C(=O)N[C@@H](Cc1c[nH]c2ccccc12)C(=O)N[C@H](C(N)=O)C(C)C)[C@@H](C)O)C(C)C)[C@@H](C)O (Ac-TVFTSWEEALDWV-NH2)

- IC50 [15]: 40 nM
- IC50 [7]: 720 nM
- IC50 [16]: 1830 nM
- Kd [8]: 390 nM
- inhibition [9]: 50%
Structure (SMILES): CC[C@H](C)[C@H](NC(=O)[C@H](CCCCNC(=N)N)NC(=O)[C@H](CCCCN)NC(=O)[C@H](CC(C)C)NC(=O)[C@H](CC(N)=O)NC(=O)[C@H](Cc1c[nH]c2ccccc12)NC(=O)C1(N)CCC(c2ccccc2)CC1)C(=O)NCC(=O)N[C@@H](CC(C)C)C(=O)N[C@@H](CC(C)C)C(=O)N[C@@H](CCCNC(=N)N)C(=O)O (stereo partly specified) (H-[X1]WNLK[hArg]IGLLR-OH)

- IC50 (PCSK9/LDLR [6]): 700 nM
Structure (SMILES): CC(C)C[C@H](NC(=O)[C@H](Cc1ccc(O)cc1)NC(=O)[C@@H](N)CC(C)C)C(=O)N1CCC[C@H]1C(=O)N[C@@H](CCCCN)C(=O)N[C@@H](Cc1c[nH]cn1)C(=O)N[C@@H](CO)C(=O)N[C@@H](CC(=O)O)C(=O)N[C@@H](CCCNC(=N)N)C(=O)N[C@@H](CC(=O)O)C(=O)O (H-LYLPKHSDRD-OH)

- IC50 [15]: 140 nM
- IC50 [10]: 700 nM
Structure (SMILES): CC[C@H](C)[C@H](NC(=O)[C@H](CCCCNC(=N)N)NC(=O)[C@@H](NC(=O)[C@H](CC(C)C)NC(=O)[C@H](CC(N)=O)NC(=O)[C@H](Cc1c[nH]c2ccccc12)NC(=O)C1(N)CCC(c2ccccc2)CC1)C(C)C)C(=O)NCC(=O)N[C@@H](CC(C)C)C(=O)N[C@@H](CC(C)C)C(=O)N[C@@H](CCCNC(=N)N)C(=O)O (stereo partly specified) (H-[X1]WNLV[hArg]IGLLR-OH)

Structure (SMILES): C[C@H]1NC(=O)[C@H](CNC(=O)CCOCCOCC[N+](C)(C)C)NC(=O)CCSCc2cc3cc(c2)-n2cc(nn2)Cn2cc(c4cc(F)ccc42)C[C@@H]2NC(=O)[C@H](Cc4cccc(c4)C/C=C/CCO[C@H]4CCN(C2=O)[C@@H]4C(=O)N[C@@H]([C@@H](C)O)C(=O)N[C@@H](Cc2ccc(O)cc2)C(=O)N2CCC[C@@]2(C)C(=O)NCCSC3)NC1=O
- Activity (Homo sapiens [17]): 65%

- IC50 [15]: 840 nM
- IC50 [16]: 25000 nM
- Kd [8]: 700 nM
- inhibition [9]: 70%
Structure (SMILES): CC[C@H](C)[C@H](NC(=O)[C@H](CCCCNC(=N)N)NC(=O)[C@@H](NC(=O)[C@H](CC(C)C)NC(=O)[C@H](CC(N)=O)NC(=O)[C@H](Cc1c[nH]c2ccccc12)NC(=O)CNC(=O)[C@@H]1CCCN1C(=O)[C@H](Cc1ccccc1)NC(=O)[C@H](CO)NC(=O)[C@H](CCC(=O)O)NC(=O)[C@@H](N)CCSC)C(C)C)C(=O)NCC(=O)N[C@@H](CC(C)C)C(=O)N[C@@H](CC(C)C)C(=O)N[C@@H](CCCNC(=N)N)C(=O)O (H-MESFPGWNLV[hArg]IGLLR-OH)
